Experimental data reported in patent US20200297820A1, “STIMULATION OF HUMAN MEIBOMIAN GLAND FUNCTION” (The Schepens Eye Research Institute, Inc., priority 2013, published 2020).

Columns and labels:
Assay type in all cases: cell-based
[1] = test system: human meibomian gland epithelial cells; experiment: High-performance thin-layer chromatography of total cellular lipid extracts; conditions: for accumulation of CE / accumulation of TG: 10 nM IGF-1 or 10 μg/mL AZM
Description: Cell numbers were enumerated with a hemocytometer. Cellular lipid and lysosome accumulation were examined by staining cells with: Filipin III (a fluorometric probe for identifying unesterified cholesterol), LipidTOX green neutral lipid stain, and LysoTracker® Red DND-99 (a fluorescent technique designed for labeling acidic organelles such as lysosomes). Lysosomal lamellar bodies were identified by transmission electron microscopy. In brief, after culture and treatment on 24 mm polycarbonate membrane transwell inserts (0.4 μm pore size), cells were fixed in a solution of 2% formaldehyde+2.5% glutaraldehyde, in 0.08 M sodium cacodylate buffer, pH 7.4, post-fixed with 2% osmium tetroxide in 0.1 M sodium cacodylate buffer, and stained en bloc with 2% aqueousuranyl acetate. Samples were then dehydrated in graded ethyl alcohol solutions and embedded by using the tEPON-812 epoxy resin kit. Cross sections ([…]) were stained with 1% toluidine blue in 1% sodium tetraborate solution. Ultra-thin sections (60-90 nm) were imaged with a transmission electron microscope interfaced with a digital CCD camera. For biochemical assessments, cellular lipids were extracted with chloroform and methanol from samples with the same amount of protein. Lipids were then evaluated with high-performance thin-layer chromatography. With regard to the staining results, three Filipin, five LipidTox and four LysoTracker studies were conducted, and each experiment was performed in duplicate. Four random pictures were taken of each group, and four random areas were selected for the measurement of fluorescent intensities. The HPTLC experiments were performed in duplicate more than three times. Image data were quantified with ImageJ (http://rsbweb.nib.gov/ij/index.html). Electron microscopic analyses were performed in triplicate.
FIG. 8a illustrates the effect of AZM on the expression of cholesterol ester (CE), free cholesterol (FC), phosphatidylethanolamine (PE), phosphatidylcholine (PC), and phosphatidylinositol (PI) inhuman meibomian gland epithelial cells. Cells were treated with vehicle or 10 μg/ml AZM for 5 days before performing chromatographic analyses of total lipid extracts. FIG. 8b illustrates band intensity of the cells shown in FIG. 8a measured using ImageJ. Control band intensity was set to 1, and data (mean±SE) are reported as fold-change compared to control values. *p<0.05,**p<0.005, versus control. Band intensity analysis includes data from at least three independent experiments.
FIGS. 14a and 14b illustrate the effect of IGF-1, AZM, and IFG-1+AZM combination on the accumulation of CE, TG, FC, PE, and PC. […] FIG. 14b quantifies band intensity using ImageJ. The control band intensity was set to 1, and data (mean 6 SE) were reported as fold-change compared with control values. […] Other bands are unidentified lipids. Band intensity analysis included data from three independent experiments.

LNCaP cells = experiment: Proliferation of LNCaP control cells; conditions: 1% FBS, 2 days
Method: Regarding cell proliferation assay, the human meibomian gland epithelial cells and LNCaP cells were cultured in 12-well plates in designated media and then exposed to IGF-1 or GH for defined periods. At experimental termination, cells were trypsinized and counted with a hemocytometer.
FIGS. 10a, 10b, and 10c illustrate the influence of IGF-1 on the proliferation of human meibomian gland epithelial cells. Cells were cultured (100,000 cells/well in 12-well plates, 3 wells per group) in basal, proliferating, and/or differentiating media and treated with IGF-I for 2 to 6 days. […] P values are for post hoc comparison compared with the control value. […] ANOVA indicates analysis of variance; EGF-BPE, epidermal growth factor-bovine pituitary extract; KSFM, keratinocyte serum-free medium. All comparisons are with control value. Whiskers mark SEM. aP<0.05 compared with the control value, post hoc test.

[2] = test system: human meibomian gland epithelial cells; experiment: Immunoblot of signaling pathways (Akt, FoxO1, ERK, JAK2/STAT5)
Method: The disclosure turns now to sodium dodecyl sulfate-polyacrylamide gel, electrophoresis, and immunoblots. Cells were directly lysed in Laemmli buffer supplemented with 1% protease inhibitor cocktail (Sigma-Aldrich) and 5% β-mercaptoethanol (Sigma-Aldrich). Lysates were heated at 95° C. for 10 minutes, separated by sodium dodecyl sulfate-polyacrylamide gel electrophoresis on 10% Tris-glycine precast gels, and transferred to polyvinylidene difluoride membranes. Rabbit or mouse antibodies used were specific for phosphorylated Akt (p-Akt), pan-Akt, p-FoxO1, FoxO1, p-JAK2, JAK2, and β-actin; for p-ERK, ERK-2, STAT5, and the precursor form of SREBP-1; and for p-STAT5. Membranes were blocked with 5% bovine serum albumin in Tris-buffered saline containing 0.01% polysorbate 20. All primary antibodies were diluted to 1:1000 in blocking buffer except for p-Akt (1:4000), p-ERK (1:2000), ERK-2 (1:4000), SREBP-1 (1:200), and β-actin (1:10 000). Horseradish peroxidase-conjugated secondary antibodies were goat anti-rabbit IgG and Fc-specific goat anti-mouse IgG diluted to 1:5000. Proteins were visualized with enhanced chemiluminescent substrate or with ultrasensitive chemiluminescent substrate. Densitometry was performed with image-processing software.
To determine whether IGF-1 promotes the phosphorylation of Akt in human meibomian gland epithelial cells, cells were cultured under proliferating or differentiating conditions and then exposed to IGF-1 for 15 minutes.
FIGS. 9a, 9b, and 9c illustrate the effects of insulin-like growth factor 1 (IGF-1) and growth hormone (GH) on signaling pathways in human meibomian gland epithelial cells. Cells were cultured in keratinocyte serum-free medium containing epidermal growth factor (EGF) and bovine pituitary extract (BPE) for 2 days and then keratinocyte serum-free medium alone overnight or were cultured in 10% fetal bovine serum (FBS) medium for 5 to 7 days and in 1% FBS medium overnight. Cells were then incubated with vehicle or a 10 μM concentration of LY294002 for 2 hours, followed by IGF-1 or GH treatment for 15 minutes. Cell lysates were evaluated on immunoblotting. […] These experiments were repeated at least 3 times with similar results.
To assess whether GH activates Akt, FoxO1, ERK-2, or its classic (i.e., JAK2 and STAT5) signaling pathways in human meibomian gland epithelial cells, cells were cultured in proliferating or differentiating media, and were exposed to a 10 nM concentration of GH for 15 minutes, and processed for immunoblot analyses. […]

Molecule	accumulation of CE ([1]; 7 days)	accumulation of TG ([1]; 7 days)	accumulation of PE ([1]; 10 μg/mL AZM, 7 days)	accumulation of esterified cholesterol (CE) ([1]; 10 μg/ml, 5 days)	accumulation of free cholesterol (FC) ([1]; 10 μg/ml, 5 days)	accumulation of phosphatidylcholine (PC) ([1]; 10 μg/ml, 5 days)	accumulation of phosphatidylethanolamine (PE) ([1]; 10 μg/ml, 5 days)	accumulation of phosphatidylinositol (PI) ([1]; 10 μg/ml, 5 days)	proliferation (LNCaP cells)	phosphorylation of extracellular-signal-regulated kinases (ERKs) [2]	activation of Akt, FoxO1, ERK-2, JAK2 and STAT5 ([2]; 10 nM, 15 minutes, proliferating or differentiating media)	activation of Akt, FoxO1, ERK-2, JAK2 and STAT5 ([2]; doses of 0.05 to 50 nM)	phosphorylation of ERK ([2]; 10 nM, 15 minutes, 2 studies enhanced, 3 no influence)	phosphorylation of FoxO1 ([2]; 10 nM, 15 minutes, differentiating cells)	culture condition in which Akt and FoxO1 phosphorylation occurred ([2]; 10 nM, 15 minutes, proliferating or differentiating conditions)	concentration at which p-Akt effect became maximal ([2]; IGF-1 for 15 minutes) [nM]	concentration at which p-Akt effect could be detected ([2]; IGF-1 for 15 minutes) [nM]	expression of p-Akt ([2]; IGF-1 for 15 minutes, differentiating cells)	phosphorylation of Akt ([2]; within minutes)
CC[C@H]1OC(=O)[C@H](C)[C@@H](O[C@H]2C[C@@](C)(OC)[C@@H](O)[C@H](C)O2)[C@H](C)[C@@H](O[C@@H]2O[C@H](C)C[C@H](N(C)C)[C@H]2O)[C@](C)(O)C[C@@H](C)CN(C)[C@H](C)[C@@H](O)[C@]1(C)O [Azithromycin]	significant effect	significant effect	significant effect	significantly promotes an accumulation	significantly promotes an accumulation	significantly promotes an accumulation	significantly promotes an accumulation	significantly promotes an accumulation	–	–	–	–	–	–	–	–	–	–	–
GH: human growth hormone	–	–	–	–	–	–	–	–	increased	increase the phosphorylation	did not show that GH elicited effects	negative results	–	–	–	–	–	–	–
IGF-1: recombinant human insulin-like growth factor 1	significant effect	significant effect	–	–	–	–	–	–	increased	increase the phosphorylation	–	–	inconsistent effect	increased phosphorylation of FoxO1	differentiating but not proliferating cells	10	1	dose-dependent expression of p-Akt	increases the phosphorylation of Akt
